Assay results: patent US11021481B2, “Substituted isoindolin-1-ones and 2,3-dihydro-1h-pyrrolo[3,4-c]pyridin-1-ones as HPK1 antagonists” (Nimbus Saturn, Inc., priority 2019, dated 2021)

Target: HPK1 (Homo sapiens (Human), UniProt Q92918)
Test: HPK1 biochemical enzyme assay (microfluidic mobility shift assay)
Details: 1.5 nM HPK1, ATP 1 mM final, 30 min preincubation, 60 min at RT, Caliper EZ Reader; read-out: HPK1 1000UMATP caliper IC50
How it was run: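 Mobility shift readout of HPK1 activity after a 60 min RT reaction with 1 mM ATP, 1 μM substrate and 5 mM MgCl2. Enzyme/substrate mix was first exposed to compounds for 30 min, using ten-point curves topping at 3 μM final.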

Sequence of HPK1 (Q92918 whole entry): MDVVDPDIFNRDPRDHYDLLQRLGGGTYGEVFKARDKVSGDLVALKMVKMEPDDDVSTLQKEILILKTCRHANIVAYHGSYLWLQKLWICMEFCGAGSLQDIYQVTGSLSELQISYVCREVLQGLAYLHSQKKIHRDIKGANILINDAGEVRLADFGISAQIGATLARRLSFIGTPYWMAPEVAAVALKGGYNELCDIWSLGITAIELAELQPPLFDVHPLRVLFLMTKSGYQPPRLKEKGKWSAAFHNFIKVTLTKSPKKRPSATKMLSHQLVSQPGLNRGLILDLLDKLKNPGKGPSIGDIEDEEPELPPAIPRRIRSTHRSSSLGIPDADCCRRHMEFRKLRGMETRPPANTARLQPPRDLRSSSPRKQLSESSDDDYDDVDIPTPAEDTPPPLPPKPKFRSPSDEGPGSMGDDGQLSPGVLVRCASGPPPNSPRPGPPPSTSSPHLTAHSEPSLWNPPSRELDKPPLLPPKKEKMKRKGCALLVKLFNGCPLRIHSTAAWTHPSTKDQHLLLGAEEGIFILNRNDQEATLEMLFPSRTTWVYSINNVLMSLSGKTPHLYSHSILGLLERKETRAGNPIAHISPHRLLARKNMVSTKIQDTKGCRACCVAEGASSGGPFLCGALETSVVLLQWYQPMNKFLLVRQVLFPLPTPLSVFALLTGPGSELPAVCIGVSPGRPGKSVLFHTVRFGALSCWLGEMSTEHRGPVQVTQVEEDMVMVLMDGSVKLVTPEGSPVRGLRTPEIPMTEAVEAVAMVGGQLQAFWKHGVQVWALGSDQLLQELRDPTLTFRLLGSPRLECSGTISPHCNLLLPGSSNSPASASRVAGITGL

Row | SMILES | IC50
1 | O=C1NCc2c(-c3cnc4cnccn34)ccc(Nc3ccc(N4CC5(COC5)C4)cn3)c21 [I-312, 7-((5-(2-oxa-6-azaspiro[3,3]heptan-6-yl)pyridin-2-yl)amino)-4-(imidazo[1,2-a]pyrazin-3-yl)isoindolin-1-one] | < 0.1 µM
2 | C[C@H]1COCCN1c1ccc(Nc2ccc(-c3cnc4cnccn34)c3c2C(=O)NC3)nc1 [I-314, (S)-4-(imidazo[1,2-a]pyrazin-3-yl)-7-((5-(3-methylmorpho-lino)pyridin-2-yl)amino)isoin-dolin-1-one] | < 0.1 µM
3 | C[C@@H]1NC(=O)c2c(Nc3ccc(N4CCC(O)CC4)cn3)ccc(-c3cnc4ccccn34)c21 [I-316, (S)-7-((5-(4-hydroxypip-eridin-1-yl)pyridin-2-yl)amino)-4-(imidazo[1,2-a]pyridin-3-yl)-3-methylisoindo-lin-1-one] | > 1 µM
4 | O=C1NCc2c(-c3cnc4cnccn34)ccc(Nc3ccc(N4[C@@H]5CC[C@H]4C[C@H](O)C5)cn3)c21 [I-320, 7-((5-((1R,3s,5S)-3-hydroxy-8-azabicyclo [3,2.1]octan-8-yl)pyridin-2-yl)amino)-4-(imidazo[1,2-a]pyrazin-3-yl)isoindolin-1-one] | < 0.1 µM
5 | O=C1NCc2c(-c3cnc4cc(F)ccn34)ccc(Nc3ccc(S(=O)(=O)CC4CCC4)cn3)c21 [I-321, 7-((5-((cyclobutyl-methyl)sulfonyl)pyridin-2-yl)amino)-4-(7-fluoroimidazo [1,2-a]pyridin-3-yl)isoindolin-1-one] | < 0.1 µM

More lines, now with the values ahead:

Row | IC50 | SMILES
6 | < 0.1 µM | Cn1ccc2c(-c3ncc(Nc4ccc(N5C[C@@H]6C[C@H]5CO6)cn4)c4c3CNC4=O)ccnc21 [I-309, 7-((5-((1S,4S)-2-oxa-5-azabicyclo[2.2.1]heptan-5-yl)pyridin-2-yl)amino)-4-(1-methyl-1H-pyrrolo[2,3-b]pyridin-4-yl)-2,3-dihydro-1H-pyrrolo[3,4-c]pyridin-1-one]
7 | < 0.1 µM | CC(C)(O)[C@H]1CCCN(c2ccc(Nc3ccc(-c4cnc5cnccn45)c4c3C(=O)NC4)nc2)C1 [I-310, (S)-7-((5-(3-(2-hydroxypropan-2-yl)piperidin-1-yl)pyridin-2-yl)amino)-4-(imidazo[1,2-a]pyrazin-3-yl)isoindolin-1-one]
8 | < 0.1 µM | CC(C)(O)[C@@H]1CCCN(c2ccc(Nc3ccc(-c4cnc5cnccn45)c4c3C(=O)NC4)nc2)C1 [I-311, (R)-7-((5-(3-(2-hydroxypropan-2-yl)piperidin-1-yl)pyridin-2-yl)amino)-4-(imidazo[1,2-a]pyrazin-3-yl)isoindolin-1-one]
9 | < 0.1 µM | CC1(O)CCN(c2ccc(Nc3ccc(-c4cnc5cnccn45)c4c3C(=O)NC4)nc2)CC1 [I-313, 7-((5-(4-hydroxy-4-methylpiperidin-1-yl)pyridin-2-yl)amino)-4-(imidazo[1,2-a]pyrazin-3-yl)isoindolin-1-one]
10 | < 0.1 µM | O=C1NCc2c(-c3cnc4cnccn34)ccc(Nc3ccc(N4CC(O)C4)cn3)c21 [I-315, 7-((5-(3-hydroxyazeti-din-1-yl)pyridin-2-yl)amino)-4-(imidazo[1,2-a]pyrazin-3-yl)isoindolin-1-one]
11 | < 0.1 µM | C[C@H]1NC(=O)c2c(Nc3ccc(N4CCC(O)CC4)cn3)ccc(-c3cnc4ccccn34)c21 [I-317, (R)-7-((5-(4-hydroxy-piperidin-1-yl)pyridin-2-yl)amino)-4-(imidazo[1,2-a]pyridin-3-yl)-3-methylisoindo-lin-1-one]
12 | < 0.1 µM | O=C1NCc2c(-c3cnc4cnccn34)ccc(Nc3ccc(N4C[C@H]5COC[C@H]5C4)cn3)c21 [I-318, 4-(imidazo[1,2-a]pyrazin-3-yl)-7-((5-((3aR,6aS)-tetrahydro-1H-furo[3,4-c]pyrrol-5(3H)-yl)pyridin-2-yl)amino)isoin-dolin-1-one]
13 | < 0.1 µM | CC(C)N1CCN(c2ccc(Nc3cnc(-c4ccnc5c4ccn5C)c4c3C(=O)NC4)nc2)CC1 [I-319, 7-((5-(4-isopropylpiperazin-1-yl)pyridin-2-yl)amino)-4-(1-methyl-1H-pyrrolo[2,3-b]pyridin-4-yl)-2,3-dihydro-1H-pyrrolo[3,4-c]pyridin-1-one]
